Laboratory results reported in patent US9259002B2, “Herbicidal composition and method of use thereof” (Syngenta Crop Protection LLC, priority 2006, dated 2016).

What was measured:
Type in all cases: in vivo
[1] = tested on: white clover (Trifolium repens); experiment: Glasshouse trial, post-emergence control of white clover
Method: A glasshouse trial was carried out. White clover seeds were sown into standard glasshouse potting mix (1:1 v/v Promix:Vero sand soil) contained in 10 cm square plastic pots. Treatments were replicated three times. […] When used, dithiopyr was applied at a rate of 70 g ai/ha or 140 g ai/ha. The adjuvant system was X-77 at 0.1% v/v in deionised water. 200 liters of herbicide/adjuvant system was used per hectare. General weed control was evaluated at 10 and 16 days after treatment (DAT). It is noted that all herbicides were applied at reduced field rates because herbicide effects are magnified in a glasshouse environment. Rates were chosen to give a 50 to 70% level of control with herbicides applied alone as this allows for detection of any synergistic effect when tank mixtures are used. […] The results were evaluated using the Colby formula. The expected result for (A+B) is (A+B)−(A×B/100) where A and B are the ‘observed’ results for A and B on their own. […] A glasshouse trial was carried out as described in Example 1, but using triclopyr (in the form of Turflon®) instead of dithiopyr. A glasshouse trial was carried out as described in Example 2, but using fluoroxypyr (in the form of Spotlight®) instead of triclopyr.

[2] = tested on: Medicago lupulina (black medic); experiment: Glasshouse trial, post-emergence control of black medic; conditions: for Expected control (Colby), Plus Mesotrione at 100 g ai/ha: Colby formula; for Actual control, Plus Mesotrione at 100 g ai/ha: post-emergence
Method: A glasshouse trial was carried out. White clover seeds were sown into standard glasshouse potting mix (1:1 v/v Promix:Vero sand soil) contained in 10 cm square plastic pots. Treatments were replicated three times. Mesotrione (in the form Callisto® 480SE) was applied post-emergence to white clover (Trifolium repens) at either 50 g ai/ha or 100 g ai/ha with or without dithiopyr (in the form Dimension®). When used, dithiopyr was applied at a rate of 70 g ai/ha or 140 g ai/ha. The adjuvant system was X-77 at 0.1% v/v in deionised water. 200 liters of herbicide/adjuvant system was used per hectare. General weed control was evaluated at 10 and 16 days after treatment (DAT). It is noted that all herbicides were applied at reduced field rates because herbicide effects are magnified in a glasshouse environment. Rates were chosen to give a 50 to 70% level of control with herbicides applied alone as this allows for detection of any synergistic effect when tank mixtures are used. […] The results were evaluated using the Colby formula. The expected result for (A+B) is (A+B)−(A×B/100) where A and B are the ‘observed’ results for A and B on their own. […] A glasshouse trial was carried out as described in Example 1, but using triclopyr (in the form of Turflon®) instead of dithiopyr. A glasshouse trial was carried out as described in Example 2, but using Medicago lupulina (black medic) of white clover. A glasshouse trial was carried out as described in Example 4, but using fluoroxypyr instead of triclopyr.

[3] = tested on: Eleusine indica (goosegrass); experiment: Glasshouse trial, post-emergence control of goosegrass; conditions: for Expected control (Colby), Plus Mesotrione at 200 g ai/ha: Colby formula; for Actual control, Plus Mesotrione at 200 g ai/ha: post-emergence
[4] = fluroxypyr 50 g ai/ha + mesotrione 100 g ai/ha
[5] = triclopyr 140 g ai/ha + mesotrione 200 g ai/ha
[6] = triclopyr 280 g ai/ha + mesotrione 200 g ai/ha
[7] = triclopyr 140 g ai/ha + mesotrione 100 g ai/ha

CSC(=O)c1c(C(F)F)nc(C(F)(F)F)c(C(=O)SC)c1CC(C)C [Dithiopyr, S,S′-dimethyl 2-difluoromethyl-4-isobutyl-6-trifluoromethylpyridine-=3,5-dicarbothioate]
Actual control, Plus Mesotrione at 50 g ai/ha ([1]; dithiopyr 70 g ai/ha + mesotrione 50 g ai/ha tank mix, post-emergence, 10 DAT): 46.7
Expected control (Colby), Plus Mesotrione at 50 g ai/ha ([1]; dithiopyr 70 g ai/ha + mesotrione 50 g ai/ha, 10 DAT, Colby formula): 37.4
Actual control, Plus Mesotrione at 100 g ai/ha ([1]; dithiopyr 70 g ai/ha + mesotrione 100 g ai/ha tank mix, post-emergence, 10 DAT): 55.0
Expected control (Colby), Plus Mesotrione at 100 g ai/ha ([1]; dithiopyr 70 g ai/ha + mesotrione 100 g ai/ha, 10 DAT, Colby formula): 52.6
Actual control, Plus Mesotrione at 50 g ai/ha ([1]; dithiopyr 140 g ai/ha + mesotrione 50 g ai/ha tank mix, post-emergence, 10 DAT): 43.3
Expected control (Colby), Plus Mesotrione at 50 g ai/ha ([1]; dithiopyr 140 g ai/ha + mesotrione 50 g ai/ha, 10 DAT, Colby formula): 44.2
Actual control, Plus Mesotrione at 100 g ai/ha ([1]; dithiopyr 140 g ai/ha + mesotrione 100 g ai/ha tank mix, post-emergence, 10 DAT): 46.7
Expected control (Colby), Plus Mesotrione at 100 g ai/ha ([1]; dithiopyr 140 g ai/ha + mesotrione 100 g ai/ha, 10 DAT, Colby formula): 57.8
control of white clover on its own ([1]; dithiopyr alone, higher rate (140 g ai/ha), post-emergence): 18%
control of white clover on its own ([1]; dithiopyr alone, lower rate (70 g ai/ha), post-emergence): 8%

Nc1c(Cl)c(F)nc(OCC(=O)O)c1Cl [Fluroxypyr, [(4-amino-3,5-dichloro-6-fluoro-2-pyridinyl)oxy]acetic acid]
Expected control (Colby), Plus Mesotrione at 100 g ai/ha [2, 4]: 85
Actual control, Plus Mesotrione at 100 g ai/ha [2, 4]: 90
Expected control (Colby), Plus Mesotrione at 100 g ai/ha ([1]; fluroxypyr 50 g ai/ha + mesotrione 100 g ai/ha, Colby formula): 84
Actual control, Plus Mesotrione at 100 g ai/ha ([1]; fluroxypyr 50 g ai/ha + mesotrione 100 g ai/ha, post-emergence): 91

O=C(O)COc1nc(Cl)c(Cl)cc1Cl [Triclopyr, [(3,5,6-trichloro-2-pyridyl)oxy]acetic acid]
Expected control (Colby), Plus Mesotrione at 200 g ai/ha [3, 5]: 32
Actual control, Plus Mesotrione at 200 g ai/ha [3, 5]: 42
Expected control (Colby), Plus Mesotrione at 200 g ai/ha [3, 6]: 35
Actual control, Plus Mesotrione at 200 g ai/ha [3, 6]: 50
Expected control (Colby), Plus Mesotrione at 100 g ai/ha [2, 7]: 91
Actual control, Plus Mesotrione at 100 g ai/ha [2, 7]: 97
Expected control (Colby), Plus Mesotrione at 100 g ai/ha ([1]; triclopyr 140 g ai/ha + mesotrione 100 g ai/ha, Colby formula): 84
Actual control, Plus Mesotrione at 100 g ai/ha ([1]; triclopyr 140 g ai/ha + mesotrione 100 g ai/ha, post-emergence): 99
Expected control (Colby), Plus Mesotrione at 200 g ai/ha ([1]; triclopyr 140 g ai/ha + mesotrione 200 g ai/ha, Colby formula): 90
Actual control, Plus Mesotrione at 200 g ai/ha ([1]; triclopyr 140 g ai/ha + mesotrione 200 g ai/ha, post-emergence): 98

CS(=O)(=O)c1ccc(C(=O)C2C(=O)CCCC2=O)c([N+](=O)[O-])c1 [mesotrione, 2-(2′-nitro-4′-methylsulphonylbenzoyl)-1,3-cyclohexanedione]
control of white clover on its own ([1]; mesotrione alone, higher rate (100 g ai/ha), post-emergence): 48%
control of white clover on its own ([1]; mesotrione alone, lower rate (50 g ai/ha), post-emergence): 32%
